Experimental data as given in ChEMBL document CHEMBL1201862, “PubChem BioAssay data set” (2004).
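Values below derive from 48-hour exposures of cells grown in 96-well plates, with endpoints linearly interpolated between the two concentrations bracketing the appropriate inhibition level. At the GI50, growth is halved.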 Activity calls are given as the source filed them. Rule as the data show it: active = GI50 up to about 1.1 µM and inactive = higher.

What was measured:
Assay in all cases: inhibition of tumour cell growth, NCI panel, 48 h
[1] = tested on: A498
[2] = tested on: HOP-92
[3] = tested on: T47D
[4] = tested on: COLO 205
[5] = tested on: A549
[6] = tested on: IGROV-1
[7] = tested on: MDA-N
[8] = tested on: DU-145
[9] = tested on: MOLT-4
[10] = tested on: Hs-578T
[11] = tested on: NCI/ADR-RES
[12] = tested on: M14
[13] = tested on: HT-29
[14] = tested on: HOP-62
[15] = tested on: HCT-116
[16] = tested on: MDA-MB-231
[17] = tested on: NCI-H23
[18] = tested on: EKVX
[19] = tested on: SF-268
[20] = tested on: MDA-MB-435
[21] = tested on: NCI-H460
[22] = tested on: SR
[23] = tested on: LOX IMVI
[24] = tested on: MCF7
[25] = tested on: SK-MEL-5
[26] = tested on: SK-MEL-28
[27] = tested on: RPMI-8226
[28] = tested on: SK-MEL-2
[29] = tested on: UACC-257
[30] = tested on: RXF 393
[31] = tested on: SF-295
[32] = tested on: Malme-3M
[33] = tested on: SW-620
[34] = tested on: NCI-H226
[35] = tested on: BT-549
[36] = tested on: SK-OV-3
[37] = tested on: CCRF-CEM
[38] = tested on: OVCAR-5
[39] = tested on: SN12C
[40] = tested on: SNB-75
[41] = tested on: SF-539
[42] = tested on: NCI-H522
[43] = tested on: HCC 2998
[44] = tested on: UACC-62
[45] = tested on: OVCAR-8
[46] = tested on: CAKI-1
[47] = tested on: K562
[48] = tested on: OVCAR-3
[49] = tested on: ACHN
[50] = tested on: U-251
[51] = tested on: UO-31
[52] = tested on: KM12
[53] = tested on: HL-60
[54] = tested on: 786-0
[55] = tested on: SNB-19
[56] = tested on: PC-3
[57] = tested on: HCT-15

SMILES: CN(C)c1ccc(/C=C(/NC(=O)c2ccccc2)C(=O)Nc2ccccc2C(=O)O)cc1
- GI50 [1]: 57 µM (inactive)
- GI50 [2]: > 100 µM (inactive)
- GI50 [3]: > 100 µM (inactive)
- GI50 [4]: > 100 µM (inactive)
- GI50 [5]: > 100 µM (inactive)
- GI50 [6]: > 100 µM (inactive)
- GI50 [7]: > 100 µM (inactive)
- GI50 [8]: > 100 µM (inactive)
- GI50 [9]: > 100 µM (inactive)
- GI50 [10]: > 100 µM (inactive)
- GI50 [11]: > 100 µM (inactive)
- GI50 [12]: > 100 µM (inactive)
- GI50 [13]: > 100 µM (inactive)
- GI50 [14]: > 100 µM (inactive)
- GI50 [15]: > 100 µM (inactive)
- GI50 [16]: > 100 µM (inactive)
- GI50 [17]: > 100 µM (inactive)
- GI50 [18]: > 100 µM (inactive)
- GI50 [19]: > 100 µM (inactive)
- GI50 [20]: > 100 µM (inactive)
- GI50 [21]: > 100 µM (inactive)
- GI50 [22]: > 100 µM (inactive)
- GI50 [23]: > 100 µM (inactive)
- GI50 [24]: > 100 µM (inactive)
- GI50 [25]: > 100 µM (inactive)
- GI50 [26]: > 100 µM (inactive)
- GI50 [27]: > 100 µM (inactive)
- GI50 [28]: > 100 µM (inactive)
- GI50 [29]: > 100 µM (inactive)
- GI50 [30]: > 100 µM (inactive)
- GI50 [31]: > 100 µM (inactive)
- GI50 [32]: > 100 µM (inactive)
- GI50 [33]: > 100 µM (inactive)
- GI50 [34]: > 100 µM (inactive)
- GI50 [35]: > 100 µM (inactive)
- GI50 [36]: > 100 µM (inactive)
- GI50 [37]: > 100 µM (inactive)
- GI50 [38]: > 100 µM (inactive)
- GI50 [39]: > 100 µM (inactive)
- GI50 [40]: > 100 µM (inactive)
- GI50 [41]: > 100 µM (inactive)
- GI50 [42]: > 100 µM (inactive)
- GI50 [43]: > 100 µM (inactive)
- GI50 [44]: > 100 µM (inactive)
- GI50 [45]: > 100 µM (inactive)
- GI50 [46]: > 100 µM (inactive)
- GI50 [47]: > 100 µM (inactive)
- GI50 [48]: > 100 µM (inactive)
- GI50 [49]: > 100 µM (inactive)
- GI50 [50]: > 100 µM (inactive)
- GI50 [51]: > 100 µM (inactive)
- GI50 [52]: > 100 µM (inactive)
- GI50 [53]: > 100 µM (inactive)
- GI50 [54]: > 100 µM (inactive)
- GI50 [55]: > 100 µM (inactive)
- GI50 [56]: > 100 µM (inactive)
- GI50 [57]: > 100 µM
